# Source: US5464826A, “Method of treating tumors in mammals with 2',2'-difluoronucleosides” (Eli Lilly and Company, priority 1994, dated 1995)
# What was measured:
# [1] = test system: L1210V lymphocytic leukemia; experiment: L1210V Lymphocytic Leukemia Tumor System; assay type: in vivo, mice; settings: for Indefinite Survivors: 45 day survivors; for Toxic Deaths: deaths/mice in group
# Procedure: The study testing the efficacy of these compounds against L1210V leukemia was initiated by an IP inoculation of 1×10^6 cells. Treatment was begun 24 hours after inoculation. The response to therapy was determined by comparing the mean life span of the ten treated animals to that of the ten control animals; prolongation of life in the treated animals beyond that of controls is expressed as a percentage. In the Table, column 1 gives the example number of the compound tested; column 2, the experiment number; column 3, the dose level of the compound in mg/kg; column 4, the route of administration; column 5, the dosage schedule, that is, the days on which the compound was administered to the mice; column 6, the average increase in life span of the treated mice as compared to the control mice; column 7, the toxic deaths over the number of mice in each group; and column 8, the indefinite survivors, that is, the number of 45 day survivors in each group.
# 6C3HED lymphosarcoma = 6C3HED lymphosarcoma tumor model; assay type: in vivo, mice (C3H); settings: IP
# From the text: 6C3HED--The 6C3HED lymphosarcoma was obtained in 1979 from the Division of Cancer Treatment, N.C.I., tumor bank maintained at E.G. and G. Mason Research (Worchester, Mass.). First passage tumor was stored in liquid nitrogen using standard techniques. The transplanted tumor was re-established from the tumor bank every six months or as needed. The tumor is maintained by serial passage twice weekly in C3H mice (Charles River; Wilmington, Mass.).
# (§1) The tumor was removed from passage animals and minced into 1 to 3 mm square fragments using sterile techniques. Tumor pieces were checked for sterility using both Antibiotic Medium 1 and Brain Heart Infusion (Difco; Detroit, Mich.). Recipient mice were shaved and tumor pieces were implanted subcutaneously in the axillary region by trocar. Drug therapy on the appropriate schedule was initiated on the day after tumor implant. The compound was dissolved in saline for all experiments. All animals were weighed at the beginning and end of drug treatment. Food and water were provided ad libitum. On days 10 to 12, two dimensional measurements (width and length) of all tumors were taken using vernier calipers. Tumor weights were calculated from these measurements using the following formula:
# (§2) Tumor Weight (mg)=Tumor Length (mm)×Tumor Width (mm)^2 /2
# (§3) For all data, the tumor weight was rounded to the nearest tenth of a gram for analysis. No group is included in the analysis for therapeutic activity in which deaths attributable to drug toxicity exceeded 30 percent of the treated group.
# (§4) In Table 3 which follows, column 1 gives the example number of the compound tested; column 2 provides the tumor system; column 3, the dose level; column 4, the route administered; column 5, the dosage schedule; column 6, the percent inhibition of the tumor; and column 7, the toxic deaths observed prior to completion of the study.
# [2] = test system: P1534J lymphatic leukemia; experiment: P1534J lymphatic leukemia tumor model; assay type: in vivo, mice (DBA/2); settings: IP, Days 1,5,9
# From the text: P1534J--The P1534J lymphocytic leukemia (solid form) was obtained in 1973 from the Jackson Laboratory (Bar Harbor, Me.). First passage tumor was stored in liquid nitrogen using standard techniques. Subsequent replenishment of the tumor bank with this tumor was accomplished from first passage tumor. The transplanted tumor was re-established from the tumor bank every six months or as needed. The tumor is maintained by serial passage once a week in DBA/2 mice (Charles River; Wilmington, Mass.).
# as §1, §2, §3, §4
# [3] = Experiment 1, 1.25 mg/kg, IP, Days 1,5,9
# [4] = Experiment 1, 2.5 mg/kg, IP, Days 1,5,9
# [5] = Experiment 1, 5.0 mg/kg, IP, Days 1,5,9
# [6] = Experiment 1, 10.0 mg/kg, IP, Days 1,5,9
# [7] = Experiment 1, 20.0 mg/kg, IP, Days 1,5,9
# [8] = Experiment 2, 0.5 mg/kg, IP, Daily for 10 Days
# [9] = Experiment 2, 1.0 mg/kg, IP, Daily for 10 Days
# [10] = Experiment 2, 2.0 mg/kg, IP, Daily for 10 Days
# [11] = Experiment 3, 25.0 mg/kg, IP, Day 1 only
# [12] = Experiment 3, 50.0 mg/kg, IP, Day 1 only
# [13] = Experiment 3, 100.0 mg/kg, IP, Day 1 only
# [14] = Experiment 3, 200.0 mg/kg, IP, Day 1 only
# [15] = Experiment 4, 0.5 mg/kg, PO, Daily for 10 days
# [16] = Experiment 4, 1.0 mg/kg, PO, Daily for 10 days
# [17] = Experiment 4, 2.0 mg/kg, PO, Daily for 10 days
# [18] = Experiment 4, 4.0 mg/kg, PO, Daily for 10 days
# [19] = Experiment 5, 0.5 mg/kg, IP, Daily for 9 days
# [20] = Experiment 5, 1.0 mg/kg, IP, Daily for 9 days
# [21] = Experiment 5, 2.0 mg/kg, IP, Daily for 9 days
# [22] = Experiment 5, 4.0 mg/kg, IP, Daily for 9 days
smiles,measurement,setting,value
"Nc1ccn(C2O[C@H](CO)[C@@H](O)C2(F)F)c(=O)n1 (stereo partly shown) [Example 1, 1-(4-Amino-2-oxo-1H-pyrimidin-1-yl)-2-desoxy-2,2-difluororibose]",Percent Increase Life Span,[1]; [3],50%
same,Indefinite Survivors,[1]; [3],0
same,Toxic Deaths,[1]; [3],0/10
same,Percent Increase Life Span,[1]; [4],60%
same,Indefinite Survivors,[1]; [4],0
same,Toxic Deaths,[1]; [4],0/10
same,Percent Increase Life Span,[1]; [5],66%
same,Indefinite Survivors,[1]; [5],0
same,Toxic Deaths,[1]; [5],0/10
same,Percent Increase Life Span,[1]; [6],66%
same,Indefinite Survivors,[1]; [6],0
same,Toxic Deaths,[1]; [6],1/10
same,Percent Increase Life Span,[1]; [7],60%
same,Indefinite Survivors,[1]; [7],0
same,Toxic Deaths,[1]; [7],0/10
same,Percent Increase Life Span,[1]; [8],13%
same,Indefinite Survivors,[1]; [8],0
same,Toxic Deaths,[1]; [8],0/10
same,Percent Increase Life Span,[1]; [9],0%
same,Indefinite Survivors,[1]; [9],0
same,Toxic Deaths,[1]; [9],0/10
same,Percent Increase Life Span,[1]; [10],0%
same,Indefinite Survivors,[1]; [10],0
same,Toxic Deaths,[1]; [10],0/10
same,Percent Increase Life Span,[1]; [11],23%
same,Indefinite Survivors,[1]; [11],0
same,Toxic Deaths,[1]; [11],0/10
same,Percent Increase Life Span,[1]; [12],30%
same,Indefinite Survivors,[1]; [12],0
same,Toxic Deaths,[1]; [12],0/10
same,Percent Increase Life Span,[1]; [13],26%
same,Indefinite Survivors,[1]; [13],0
same,Toxic Deaths,[1]; [13],0/10
same,Percent Increase Life Span,[1]; [14],34%
same,Indefinite Survivors,[1]; [14],0
same,Toxic Deaths,[1]; [14],0/10
same,Percent Increase Life Span,[1]; [15],8%
same,Indefinite Survivors,[1]; [15],0
same,Toxic Deaths,[1]; [15],0/10
same,Percent Increase Life Span,[1]; [16],15%
same,Indefinite Survivors,[1]; [16],0
same,Toxic Deaths,[1]; [16],0/10
same,Percent Increase Life Span,[1]; [17],18%
same,Indefinite Survivors,[1]; [17],0
same,Toxic Deaths,[1]; [17],1/10
same,Percent Increase Life Span,[1]; [18],2%
same,Indefinite Survivors,[1]; [18],0
same,Toxic Deaths,[1]; [18],4/10
same,Percent Increase Life Span,[1]; [19],74%
same,Indefinite Survivors,[1]; [19],0
same,Toxic Deaths,[1]; [19],0/10
same,Percent Increase Life Span,[1]; [20],104%
same,Indefinite Survivors,[1]; [20],0
same,Toxic Deaths,[1]; [20],0/10
same,Percent Increase Life Span,[1]; [21],136%
same,Indefinite Survivors,[1]; [21],0
same,Toxic Deaths,[1]; [21],0/10
same,Percent Increase Life Span,[1]; [22],44%
same,Indefinite Survivors,[1]; [22],0
same,Toxic Deaths,[1]; [22],0/10
same,Percent Inhibition of Tumor,"6C3HED lymphosarcoma; 0.05 mg/kg, Daily for 8 Days",0%
same,Toxic Deaths,"6C3HED lymphosarcoma; 0.05 mg/kg, Daily for 8 Days",0/10
same,Percent Inhibition of Tumor,"6C3HED lymphosarcoma; 0.1 mg/kg, Daily for 8 Days",0%
same,Toxic Deaths,"6C3HED lymphosarcoma; 0.1 mg/kg, Daily for 8 Days",0/10
same,Percent Inhibition of Tumor,"6C3HED lymphosarcoma; 0.2 mg/kg, Daily for 8 Days",0%
same,Toxic Deaths,"6C3HED lymphosarcoma; 0.2 mg/kg, Daily for 8 Days",0/10
same,Percent Inhibition of Tumor,"6C3HED lymphosarcoma; 0.4 mg/kg, Daily for 8 Days",8%
same,Toxic Deaths,"6C3HED lymphosarcoma; 0.4 mg/kg, Daily for 8 Days",0/10
same,Percent Inhibition of Tumor,"6C3HED lymphosarcoma; 1.25 mg/kg, Days 1,5,9",0%
same,Toxic Deaths,"6C3HED lymphosarcoma; 1.25 mg/kg, Days 1,5,9",0/7
same,Percent Inhibition of Tumor,"6C3HED lymphosarcoma; 2.5 mg/kg, Days 1,5,9",1%
same,Toxic Deaths,"6C3HED lymphosarcoma; 2.5 mg/kg, Days 1,5,9",0/7
same,Percent Inhibition of Tumor,"6C3HED lymphosarcoma; 5.0 mg/kg, Days 1,5,9",49%
same,Toxic Deaths,"6C3HED lymphosarcoma; 5.0 mg/kg, Days 1,5,9",0/7
same,Percent Inhibition of Tumor,"6C3HED lymphosarcoma; 10.0 mg/kg, Days 1,5,9",88%
same,Toxic Deaths,"6C3HED lymphosarcoma; 10.0 mg/kg, Days 1,5,9",0/7
same,Percent Inhibition of Tumor,"6C3HED lymphosarcoma; 20.0 mg/kg, Days 1,5,9",95%
same,Toxic Deaths,"6C3HED lymphosarcoma; 20.0 mg/kg, Days 1,5,9",0/7
same,Percent Inhibition of Tumor,[2]; 1.25 mg/kg,8%
same,Toxic Deaths,[2]; 1.25 mg/kg,0/10
same,Percent Inhibition of Tumor,[2]; 2.5 mg/kg,30%
same,Toxic Deaths,[2]; 2.5 mg/kg,0/10
same,Percent Inhibition of Tumor,[2]; 5.0 mg/kg,47%
same,Toxic Deaths,[2]; 5.0 mg/kg,0/10
same,Percent Inhibition of Tumor,[2]; 10.0 mg/kg,71%
same,Toxic Deaths,[2]; 10.0 mg/kg,2/10
same,Percent Inhibition of Tumor,[2]; 20.0 mg/kg,92%
same,Toxic Deaths,[2]; 20.0 mg/kg,1/10
